The values that follow come from patent publication US20110092547A1 (priority 2007, published 2011).

The target of this assay is T1, human DGAT1 (Homo sapiens, UniProt O75907).
T1 construct: made in house; host or cells: Sf9 insect cells (recombinant baculovirus); membrane fraction
T1 sequence (O75907 1-488): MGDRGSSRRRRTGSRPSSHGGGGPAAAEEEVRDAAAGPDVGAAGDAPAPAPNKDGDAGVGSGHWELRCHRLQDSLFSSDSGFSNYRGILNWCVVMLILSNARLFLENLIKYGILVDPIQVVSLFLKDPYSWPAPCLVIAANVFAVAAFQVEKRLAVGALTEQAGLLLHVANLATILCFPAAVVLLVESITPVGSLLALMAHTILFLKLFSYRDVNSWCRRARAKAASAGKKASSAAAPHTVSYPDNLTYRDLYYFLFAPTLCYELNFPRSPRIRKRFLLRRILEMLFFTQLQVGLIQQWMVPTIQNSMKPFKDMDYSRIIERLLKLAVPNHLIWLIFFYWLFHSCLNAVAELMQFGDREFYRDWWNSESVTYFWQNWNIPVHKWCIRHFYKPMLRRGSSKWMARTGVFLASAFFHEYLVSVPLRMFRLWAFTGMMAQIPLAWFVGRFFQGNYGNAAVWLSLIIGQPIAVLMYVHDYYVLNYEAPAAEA
The experiment in a line: Human enzyme assay, further developed assay (14C oleoyl CoA, 96 well plate). It counts as biochemical. The conditions noted are these: human DGAT1 expressed in insect cell (sf9) membranes. Summed up: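 Enzyme from Sf9 membranes expressing baculoviral human DGAT1, 25 μg/ml final, with 5 mM MgCl2 and 100 μM 1,2-dioleoyl-sn-glycerol. Compound at 0.00003–10 μM final; reaction started with 30 μM [14C]oleoyl-CoA, 30 min at room temperature. Radiolabelled triolein extracted into heptane and counted by scintillation.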
`Cc1cc(NC(=O)c2nnc(Nc3cccc(Cl)c3)o2)cnc1O[C@H]1CC[C@@H](C(=O)O)CC1` [Example 18, (1s,4s)-4-(5-(5-(3-chlorophenylamino)-1,3,4-oxadiazole-2-carboxamido)-3-methylpyridin-2-yloxy)cyclohexanecarboxylic acid] had an IC50 of 21 nM. As for `COC[C@]1(C(=O)O)CC[C@H](Oc2ccc(NC(=O)c3nnc(Nc4cc(F)c(F)cc4F)o3)cn2)CC1` [Example 3, 1-(Methoxymethyl)-4-(5-(5-(2,4,5-trifluorophenylamino)-1,3,4-oxadiazole-2-carboxamido)pyridin-2-yloxy)cyclohexanecarboxylic acid], the IC50 amounted to 35 nM. This IC50 is about 1.7-fold higher than that of the molecule before. In turn, `O=C(Nc1ccc(O[C@H]2CC[C@H](C(=O)O)CC2)nc1)c1nnc(Nc2cc(C(F)(F)F)c(F)cc2F)o1` [Example 35] showed an IC50 of 87 nM. Take `O=C(Nc1ccc(O[C@@H]2CC[C@@H](C(=O)O)C2)nc1)c1nnc(Nc2ccc(F)c(F)c2)o1` [Example 49, (1R,3R)-3-(5-(5-(3,4-Difluorophenylamino)-1,3,4-oxadiazole-2-carboxamido)pyridin-2-yloxy)cyclopentanecarboxylic acid]: the IC50 is 18 nM. `O=C(Nc1ccc(OC2CCC(C(=O)O)CC2)nc1)c1nnc(Nc2cc(F)c(F)cc2F)o1` (stereo not drawn) [Example 19, 4-({5-[({5-[(2,4,5-trifluorophenyl)amino]-1,3,4-oxadiazol-2-yl}carbonyl)amino]pyridin-2-yl}oxy)cyclohexanecarboxylic acid] registered an IC50 of 12 nM. Against the preceding molecule, the IC50 is about 1.5-fold lower. `O=C(O)C[C@H]1CC[C@H](Oc2ccc(NC(=O)c3nnc(Nc4ccc(F)c(F)c4)o3)cn2)CC1` [Example 37, 2-((1r,4r)-4-(5-(5-(3,4-difluorophenylamino)-1,3,4-oxadiazole-2-carboxamido)pyridin-2-yloxy)cyclohexyl)acetic acid] gave an IC50 of 18 nM. On to `O=C(Nc1cnc(O[C@H]2CC[C@@H](C(=O)O)CC2)c(F)c1)c1nnc(Nc2ccc(F)c(F)c2)o1` [Example 60, (1s,4s)-4-(5-(5-(3,4-Difluorophenylamino)-1,3,4-oxadiazole-2-carboxamido)-3-fluoropyridin-2-yloxy)cyclohexanecarboxylic acid], for which the midpoint of inhibition, the IC50, lay at 14 nM. With `O=C(O)c1ccc(Oc2ccc(NC(=O)c3nnc(Nc4ccc(F)c(Cl)c4)o3)cn2)cc1` [Example 39, 4-(5-(5-(3-Chloro-4-fluorophenylamino)-1,3,4-oxadiazole-2-carboxamido)pyridin-2-yloxy)benzoic acid], the IC50 amounted to 7.5 nM.

On to `O=C(Nc1ccc(OC2CCC(C(=O)O)CC2)nc1)c1nnc(Nc2ccc(F)cc2)o1` (stereo not drawn) [Example 20, 4-4-({5-[({5-[(4-fluorophenyl)amino]-1,3,4-oxadiazol-2-yl}-carbonyl)amino]pyridin-2-yl}oxy)cyclohexanecarboxylic acid], for which the IC50 amounted to 9.8 nM. Molecule `O=C(Nc1cnc(O[C@H]2CC[C@@H](C(=O)O)CC2)c(Cl)c1)c1nnc(Nc2ccc(F)c(F)c2)o1` [Example 47, (1s,4s)-4-(3-Chloro-5-(5-(3,4-difluorophenylamino)-1,3,4-oxadiazole-2-carboxamido)pyridin-2-yloxy)cyclohexanecarboxylic acid] showed an IC50 of 22 nM. For the molecule `O=C(Nc1ccc(O[C@H]2CC[C@@H](C(=O)O)CC2)nc1)c1nnc(Nc2ccc(Cl)cc2Cl)o1` [Example 12, (1s,4s)-4-(5-(5-(2,4-dichlorophenylamino)-1,3,4-oxadiazole-2-carboxamido)pyridin-2-yloxy)cyclohexanecarboxylic acid], the IC50 was determined as 7.4 nM. Against the preceding molecule, the IC50 is about 3-fold lower. `CS(=O)(=O)NC(=O)[C@H]1CC[C@@H](Oc2ccc(NC(=O)c3nnc(Nc4ccc(F)c(F)c4)o3)cn2)CC1` [Example 45, 5-(3,4-Difluorophenylamino)-N-(6-((1s,4s)-4-(methylsulfonylcarbamoyl)cyclohexyloxy)pyridin-3-yl)-1,3,4-oxadiazole-2-carboxamide] registered an IC50 of 6.4 nM.
